Columns and labels:
Type in all cases: ADME, organism-based
Enterobacter cloacae [1] = experiment: Hormesis activity against Enterobacter cloacae assessed as promotion of bacterial growth up to 25 ug/ml measured for 24 hrs in presence of efflux pump inhibitor, CCCP and 8 ug/ml tetracycline by OD600 based analysis; settings: in vivo, dose <=25 µg/ml
Acinetobacter baumannii [2] = experiment: Hormesis activity against Acinetobacter baumannii assessed as promotion of bacterial growth at 3 to 50 ug/ml measured for 24 hrs in presence of efflux pump inhibitor, CCCP and 80 to 120 ug/ml tetracycline by OD600 based analysis; settings: in vivo, dose 3-50 µg/ml
Klebsiella pneumoniae [3] = experiment: Hormesis activity against overnight compound-treated Klebsiella pneumoniae assessed as increase in antibiotic MIC by measuring rifampicin MIC at 3 ug/ml incubated for 12 hrs by OD600 based analysis (reference value: 25 ug/ml); settings: in vivo, dose 3 µg/ml
Klebsiella pneumoniae [4] = experiment: Hormesis activity against overnight compound-treated Klebsiella pneumoniae assessed as increase in antibiotic MIC by measuring azithromycin MIC at 3 ug/ml incubated for 12 hrs by OD600 based analysis (reference value: 1.5625 ug/ml); settings: in vivo, dose 3 µg/ml
Klebsiella pneumoniae [5] = experiment: Hormesis activity against overnight compound-treated Klebsiella pneumoniae assessed as increase in antibiotic MIC by measuring ciprofloxacin MIC at 3 ug/ml incubated for 12 hrs by OD600 based analysis (reference value: 0.0390625 ug/ml); settings: in vivo, dose 3 µg/ml
Klebsiella pneumoniae [6] = experiment: Hormesis activity against overnight compound-treated Klebsiella pneumoniae assessed as increase in antibiotic MIC by measuring ampicillin MIC at 3 ug/ml incubated for 12 hrs by OD600 based analysis (reference value: 12.5 ug/ml); settings: in vivo, dose 3 µg/ml
Klebsiella pneumoniae [7] = experiment: Hormesis activity against overnight compound-treated Klebsiella pneumoniae assessed as increase in antibiotic MIC by measuring meropenem MIC at 3 ug/ml incubated for 12 hrs by OD600 based analysis (reference value: 0.39625 ug/ml); settings: in vivo, dose 3 µg/ml
Klebsiella pneumoniae [8] = experiment: Hormesis activity against overnight compound-treated Klebsiella pneumoniae assessed as increase in antibiotic MIC by measuring cefotaxime MIC at 3 ug/ml incubated for 12 hrs by OD600 based analysis (reference value: 0.39625 ug/ml); settings: in vivo, dose 3 µg/ml
Klebsiella pneumoniae [9] = experiment: Hormesis activity against Klebsiella pneumoniae deficient in KmrA gene expression assessed as increase in antibiotic MIC by measuring tetracycline MIC at 3 ug/ml incubated for 12 hrs by OD600 based analysis (reference value: 6 ug/ml); settings: in vivo, dose 3 µg/ml
Klebsiella pneumoniae [10] = experiment: Hormesis activity against Klebsiella pneumoniae deficient in KmrA gene expression assessed as increase in antibiotic MIC by measuring rifampicin MIC at 3 ug/ml incubated for 12 hrs by OD600 based analysis (reference value: 25 ug/ml); settings: in vivo, dose 3 µg/ml
Klebsiella pneumoniae [11] = experiment: Hormesis activity against Klebsiella pneumoniae deficient in KmrA gene expression assessed as increase in antibiotic MIC by measuring streptomycin MIC at 3 ug/ml incubated for 12 hrs by OD600 based analysis (reference value: 0.78125 ug/ml); settings: in vivo, dose 3 µg/ml
Klebsiella pneumoniae [12] = experiment: Hormesis activity against Klebsiella pneumoniae deficient in KmrA gene expression assessed as increase in antibiotic MIC by measuring chloramphenicol MIC at 3 ug/ml incubated for 12 hrs by OD600 based analysis (reference value: 6.25 ug/ml); settings: in vivo, dose 3 µg/ml
Klebsiella pneumoniae [13] = experiment: Hormesis activity against Klebsiella pneumoniae deficient in KmrA gene expression assessed as increase in antibiotic MIC by measuring cefotaxime MIC at 3 ug/ml incubated for 12 hrs by OD600 based analysis (reference value: 0.39625 ug/ml); settings: in vivo, dose 3 µg/ml
Klebsiella pneumoniae [14] = experiment: Hormesis activity against Klebsiella pneumoniae deficient in KmrA gene expression assessed as increase in antibiotic MIC by measuring atreonamMIC at 3 ug/ml incubated for 12 hrs by OD600 based analysis (reference value: 1.5625 ug/ml); settings: in vivo, dose 3 µg/ml
Klebsiella pneumoniae [15] = experiment: Hormesis activity against overnight compound-treated Klebsiella pneumoniae deficient in KmrA gene expression assessed as increase in antibiotic MIC by measuring ciprofloxacin MIC at 3 ug/ml incubated for 12 hrs by OD600 based analysis (reference value: 0.0390625 ug/ml); settings: in vivo, dose 3 µg/ml
Klebsiella pneumoniae [16] = experiment: Hormesis activity against overnight compound-treated Klebsiella pneumoniae deficient in KmrA gene expression assessed as increase in antibiotic MIC by measuring meropenem MIC at 3 ug/ml incubated for 12 hrs by OD600 based analysis (reference value: 0.39625 ug/ml); settings: in vivo, dose 3 µg/ml
Enterobacter cloacae [17] = experiment: Hormesis activity against Enterobacter cloacae assessed as increase in antibiotic MIC by measuring tetracycline MIC at 3 ug/ml incubated for 12 hrs by OD600 based analysis (reference value: 8 ug/ml); settings: in vivo, dose 3 µg/ml
Enterobacter cloacae [18] = experiment: Hormesis activity against Enterobacter cloacae assessed as increase in antibiotic MIC by measuring rifampicin MIC at 3 ug/ml incubated for 12 hrs by OD600 based analysis (reference value: 25 ug/ml); settings: in vivo, dose 3 µg/ml
Enterobacter cloacae [19] = experiment: Hormesis activity against Enterobacter cloacae assessed as increase in antibiotic MIC by measuring streptomycin MIC at 3 ug/ml incubated for 12 hrs by OD600 based analysis (reference value: 12.5 ug/ml); settings: in vivo, dose 3 µg/ml
Enterobacter cloacae [20] = experiment: Hormesis activity against Enterobacter cloacae assessed as increase in antibiotic MIC by measuring chloramphenicol MIC at 3 ug/ml incubated for 12 hrs by OD600 based analysis (reference value: 3.125 ug/ml); settings: in vivo, dose 3 µg/ml
Enterobacter cloacae [21] = experiment: Hormesis activity against overnight compound-treated Enterobacter cloacae assessed as increase in antibiotic MIC by measuring chloramphenicol MIC at 3 ug/ml incubated for 12 hrs by OD600 based analysis (reference value: 3.125 ug/ml); settings: in vivo, dose 3 µg/ml
Enterobacter cloacae [22] = experiment: Hormesis activity against overnight compound-treated Enterobacter cloacae assessed as increase in antibiotic MIC by measuring cefotaxime MIC at 3 ug/ml incubated for 12 hrs by OD600 based analysis (reference value: 1.5625 ug/ml); settings: in vivo, dose 3 µg/ml
Acinetobacter baumannii [23] = experiment: Hormesis activity against Acinetobacter baumannii assessed as increase in antibiotic MIC by measuring tetracycline MIC at 3 ug/ml incubated for 12 hrs by OD600 based analysis (reference value: 240 ug/ml); settings: in vivo, dose 3 µg/ml
Acinetobacter baumannii [24] = experiment: Hormesis activity against Acinetobacter baumannii assessed as increase in antibiotic MIC by measuring azithromycin MIC at 3 ug/ml incubated for 12 hrs by OD600 based analysis (reference value: 200 ug/ml); settings: in vivo, dose 3 µg/ml
Acinetobacter baumannii [25] = experiment: Hormesis activity against Acinetobacter baumannii assessed as increase in antibiotic MIC by measuring chloramphenicol MIC at 3 ug/ml incubated for 12 hrs by OD600 based analysis (reference value: 6.25 ug/ml); settings: in vivo, dose 3 µg/ml
Acinetobacter baumannii [26] = experiment: Hormesis activity against Acinetobacter baumannii assessed as increase in antibiotic MIC by measuring meropenem MIC at 3 ug/ml incubated for 12 hrs by OD600 based analysis (reference value: 0.625 ug/ml); settings: in vivo, dose 3 µg/ml
Acinetobacter baumannii [27] = experiment: Hormesis activity against overnight-compound treated Acinetobacter baumannii assessed as increase in antibiotic MIC by measuring rifampicin MIC at 3 ug/ml incubated for 12 hrs by OD600 based analysis (reference value: 1.5625 ug/ml); settings: in vivo, dose 3 µg/ml
Acinetobacter baumannii [28] = experiment: Hormesis activity against overnight-compound treated Acinetobacter baumannii assessed as increase in antibiotic MIC by measuring atreonamMIC at 3 ug/ml incubated for 12 hrs by OD600 based analysis (reference value: 6.25 ug/ml); settings: in vivo, dose 3 µg/ml

In the case of `COc1ccc2cc3[n+](cc2c1OC)CCc1cc2c(cc1-3)OCO2` [BERBERINE], the Activity (Enterobacter cloacae [1]) was “Non-Toxic”, the Activity (Acinetobacter baumannii [2]) was “Non-Toxic” and the MIC (Klebsiella pneumoniae [3]) was 50 µg/mL. It also gave an MIC (Klebsiella pneumoniae [4]) of 3.125 µg/mL, an MIC (Klebsiella pneumoniae [5]) of 0.1562 µg/mL and an MIC (Klebsiella pneumoniae [6]) of 12.5 µg/mL. For the same compound, the MIC (Klebsiella pneumoniae [7]) was 0.3962 µg/mL, the MIC (Klebsiella pneumoniae [8]) was 0.3962 µg/mL and the MIC (Klebsiella pneumoniae [9]) was 6 µg/mL. It also gave an MIC (Klebsiella pneumoniae [10]) of 25 µg/mL, an MIC (Klebsiella pneumoniae [11]) of 0.7812 µg/mL and an MIC (Klebsiella pneumoniae [12]) of 6.25 µg/mL. For the same compound, the MIC (Klebsiella pneumoniae [13]) was 0.3962 µg/mL, the MIC (Klebsiella pneumoniae [14]) was 1.5625 µg/mL and the MIC (Klebsiella pneumoniae [15]) was 0.07812 µg/mL. For the same compound, the MIC (Klebsiella pneumoniae [16]) was 0.3962 µg/mL, the MIC (Enterobacter cloacae [17]) was 8 µg/mL and the MIC (Enterobacter cloacae [18]) was 25 µg/mL. For the same compound, the MIC (Enterobacter cloacae [19]) was 12.5 µg/mL, the MIC (Enterobacter cloacae [20]) was 3.125 µg/mL and the MIC (Enterobacter cloacae [21]) was 3.125 µg/mL. The MIC (Enterobacter cloacae [22]) was 3.125 µg/mL, the MIC (Acinetobacter baumannii [23]) was 240 µg/mL and the MIC (Acinetobacter baumannii [24]) was 200 µg/mL. For the same compound, the MIC (Acinetobacter baumannii [25]) was 6.25 µg/mL, the MIC (Acinetobacter baumannii [26]) was 0.625 µg/mL and the MIC (Acinetobacter baumannii [27]) was 6.25 µg/mL. The MIC (Acinetobacter baumannii [28]) was 6.25 µg/mL.

Reference: ChEMBL document CHEMBL4831545, “Hormesis Effect of Berberine against Klebsiella pneumoniae Is Mediated by Up-Regulation of the Efflux Pump KmrA” (J Nat Prod, 2021)
